“Also recorded” adds a separate entry of the source.
What was measured:
cAMP-phosphodiesterase = conditions: cited from earlier work
eosinophils = conditions: oral treatment; histamine-induced guinea pig eye model; cited from earlier work
[1] = test system: CD3+HLA-DR+ lymphocytes in human PBMC; test: PHA-mediated induction of CD3+HLA-DR+ lymphocytes in human PBMC (Example 8); format: cell-based; conditions: PHA 50 μg/ml, 24 hours
Experimental: (§1) Cells from 3-12 asthma patients were cultured 24 hours with 50 μg/ml PHA. PBMC evaluated by 2-color flow cytometry were gated for CD3+ and analyzed for CD3+CD25+ or CD3+HLA-DR+ as a percentage of the CD3+ population. Results are reported as stimulation indices (SI) calculated as the ratio of % CD3+CD25+ cells or % CD3+HLA-DR+ cells in fully-stimulated cultures to % CD3+CD25+ or % CD3+HLA-DR+ respectively in cells treated with PHA plus ASX, GB, or combinations thereof.

[2] = test system: CD3+HLA-DR+ T lymphocytes in human PBMC; test: PHA induction of HLA-DR+ on CD3+ T cells, PBMC from asthma patients (Example 5); format: cell-based; conditions: for SI HLA-DR: PHA 50 μg/ml, 24 hours
Experimental: (§2) Experiments were carried out to determine whether the immunoregulatory capacity of two commonly-used H1-inhibitory antihistamines: cetirizine dihydrochloride (CTZ/Zyrtec) and azelastine ([…]) is potentiated by the platelet activating factor receptor (PAFR) antagonist and free radical scavenger Ginkgolide B (GB). […] Each drug was first evaluated independently over a 3-log dose range from 10^-8-10^-6 M.

[3] = test system: CD3+CD25+ T lymphocytes in human PBMC; test: PHA induction of CD25+ on CD3+ T cells, PBMC from asthma patients (Example 5); format: cell-based; conditions: PHA 50 μg/ml, 24 hours
Experimental: as §2

[4] = test system: CD3+CD25+ lymphocytes in human PBMC; test: PHA-mediated induction of CD3+CD25+ lymphocytes in human PBMC (Example 8); format: cell-based; conditions: PHA 50 μg/ml, 24 hours
Experimental: as §1

[5] = test system: ovalbumin(OA)-induced asthma in guinea pigs; test: Ovalbumin-induced asthma in guinea pigs: inflammatory cells in BAL fluid; format: in vivo, guinea pig; conditions: components used separately: 10 mg/kg AX, 200 mg/kg vit C, 10 mg/kg GB
Experimental: The effect combinations of vitamin C, astaxanthin, and ginkolide on asthma-associated disease parameters ovalbumin(OA)-induced asthma in guinea pigs was evaluated. Twenty-four hours following OA challenge, animals are sacrificed and numbers of inflammatory cells (eosinophils, neutrophils, macrophages) are measured in bronchoalveolar lavage (BAL) fluid; and cAMP and cGMP concentrations in the lung tissue. The experiments were carried out as follows. Male Hartley guinea pigs (250-350 g) were sensitized by intramuscular injections of 0.35 ml of a 5% (W/V) ovalbumin (OA)/saline solution into each thigh on days 1 and 4. Guinea pigs were ready for asthmatic challenge after 25 days of ovalbumin injection. Asthmatic challenge was carried out with ovalbumin aerosol, and bronchoalveolar lavage (BAL) was done 24 hours later. The numbers of eosinophils, neutrophils, and macrophages in the BAL fluid were counted. Twenty-four hours after the aerosol OA challenge, guinea pigs were killed by cervical dislocation and exsanguinated by severing the axillary arteries. Lungs were lavaged with 50 ml of DulBecco's phosphate-buffered saline (aliquots of 10 ml), which were aspirated after gentle chest massage. BAL fluid was centrifuged at 2200 rpm (1100×g) for 10 min, supernatant was aspirated, and pellets were resuspended in 5 ml 0.25% NaCl to lyse residual erythrocytes. This dispersion was centrifuged at 2200 rpm (1100×g) for 10 min, supernatant was aspirated, and pellets were resuspended 5 ml 0.9% NaCl. Total cell counts were done by hemocytometry using trypan blue stain. Slides were prepared on a Shandon Cytospin 2 (Pittsburgh, Pa.) at 300 rpm for 5 min, fixed and stained. Differential cell counts were done using standard morphologic criteria to classify cells as eosinophils, neutrophils, or macrophages, and the results were expressed in cell numbers. The dose-responsive effect of AX, EGb761, and vitamin C administered independently for suppression of asthma-associated parameters in allergen-induced, asthmatic guinea pigs was determined. Ibuprophen (IB) was used as the positive control. Concentration of inflammatory cells in bronchoalveolar lavage (BAL) fluid and levels of cAMP and cGMP in lung tissue were measured in guinea pigs 24 hours following challenge with OV. Data is reported as mean±SD of measurements taken in 6 animals per dosage cohort. *p<0.05 compared to corresponding values of OV antigen-challenged, drug-free control group. The dose-responsive effect of AX, EGb761, and vitamin C administered in combination for suppression of asthma-associated parameters in allergen-induced, asthmatic guinea pigs was determined. The combination of these three components was given each day for each guinea pig as a “cocktail”. Concentration of inflammatory cells in bronchoalveolar lavage (BAL) fluid and levels of cAMP and cGMP in lung tissue were measured in guinea pigs 24 hours following challenge with OV. Data is reported as mean±SD of measurements taken in 6 animals per dosage cohort. *p<0.05 compared to corresponding values of OV antigen-challenged, drug-free control group.

TNF-α = TNF-α expression by PHA-stimulated human PBMC, ELISA of supernatant; format: cell-based; conditions: PHA 50 μg/ml, 24 hours; 10^−4 M
Experimental: PBMC (2×10^6/ml) from 2 donors were stimulated with 50 μg/ml, PHA; or with astaxanthin (10^−6 M); or with the ginkgolide BN52021 (GB) (10^−4 M); or with a combination of astaxanthin (10^−6 M) plus GB (10^−4 M); or with media. Cells were cultured 24 hours at 37° C., 5% CO2 and analyzed by ELISA for supernatant concentration of TNF-α. Each data point is the mean of triplicate samples.

[6] = test system: CD3+CD25+ cells in human PBMC; test: T lymphocyte activation (CD3+CD25+) in PHA-stimulated PBMC of asthma patients (Example 6); format: cell-based; conditions: PHA 50 μg/ml, 24 hours
Experimental: Experiments were carried out to determine whether formulations based on the platelet activating factor receptor (PAFR) antagonist and free radical scavenger Ginkgolide B (GB) in combination with the antioxidant carotenoid astaxanthin (ASX) suppress T cell activation in the same dose range as two commonly-used antihistamines: cetirizine dihydrochloride (CTZ/Zyrtec) and azelastine ([…]). […] Results are reported as stimulation indices (SI) of % CD3+CD25+ cells in cultures treated with PHA alone to % CD3+CD25+ cells in each drug-supplemented culture. […] Subjects for this study included 12 patients diagnosed with atopic asthma, 7 male and 5 female, ranging in age from 21 to 40 years (mean 28±1.8 years). Disease duration ranged from 2 to 12 years. Atopy was defined on the basis of one or more positive skin prick tests to a range of 20 allergens. None of the patients had received systemic therapy for at least 6 weeks prior to blood collection. The mean serum IgE was 335 (170-480) IU/ml. Venous blood for each subject was collected in polyethylene tubes containing EDTA during a one hour morning time interval. PBMC were separated by Ficoll-paque (Pharmacia, Uppsala, Sweden) density gradient centrifugation. Cells were washed and suspended in RPMI 1640 medium (Gibco BRL, Gaithersburg, Md.) at density of 1×10^6 cells/ml. PBMC were stimulated with 50 μg/ml Phytohemaglutinin (PHA) (Sigma Immunopharmaceuticals, St. Lous Mo.), or PHA plus 10^-8-10^-5 M astaxanthin (Natural Alternatives International (NAI) Inc., San Marcos Calif.); or ginkgolide B 10^-8-10^-6 M (NAI San Marcos Calif.); or selected combinations of ASX plus GB. Comparison of ASX and GB effects on T cell activation were made with two other pharmacological agents with anti-asthmatic properties by treating cells with 10^-7-10^-4 M cetirizine dihydrochloride (Pfizer Pharmaceuticals, Norwich Conn.); or 10^-7-10^-4 M azalestine hydrochloride (Wallace Pharmaceuticals, Somerset N.J.), followed by evaluation of cultures for the same biological endpoints as ASX/GB-treated cells. Each reagent was added at the outset of a 24 hours culture period, followed by harvest of cellular fraction for immunophenotyping studies. […] Two-color Flow cytometry was conducted using a Coulter Epics XL automated flow cytometer (Coulter Scientific, Hialeah, Fla., USA). Isotypic controls for the monoclonal antibodies (mAb) used to detect antigens of interest were established for each cell preparation. Positive analysis regions for cells expressing specific surface markers were set against controls and specific binding of fluorophore-conjugated mAb was analyzed by cytofluorography according to standard methods recommended by the manufacturer. Lymphocyte subpopulations were identified by position on forward and side scatter plots and live-gated. Expression of each antigen was reported as percentage cells positive for a particular T cell subpopulation defined by expression of CD3 (T lymphocyte marker) plus CD25, plus or minus standard error. Statistical analysis was performed using an independent t-test. All statistical analyses were performed using the SPSS for Windows statistical package (Norusis/SPSS, Inc.). […] The capacity of formulations evaluated in this study to suppress immune activation was measured as a stimulation index (SI), defined as the ratio of […].

PAF = PAF (Homo sapiens, UniProt P25105); conditions: cited from earlier work
Chain of PAF (P25105 whole entry): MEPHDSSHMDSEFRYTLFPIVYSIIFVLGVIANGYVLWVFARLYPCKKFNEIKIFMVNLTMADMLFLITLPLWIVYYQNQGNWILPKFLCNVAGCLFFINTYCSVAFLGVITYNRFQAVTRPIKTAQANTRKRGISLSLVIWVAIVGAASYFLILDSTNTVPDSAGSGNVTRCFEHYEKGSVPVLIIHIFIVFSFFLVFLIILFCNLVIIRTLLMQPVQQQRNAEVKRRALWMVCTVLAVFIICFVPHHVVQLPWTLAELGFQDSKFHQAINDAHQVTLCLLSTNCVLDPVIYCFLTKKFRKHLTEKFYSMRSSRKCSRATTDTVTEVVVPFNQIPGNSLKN

For `COc1ccc(-c2cc(=O)c3c(O)cc(O)c(-c4cc(-c5cc(=O)c6c(O)cc(OC)cc6o5)ccc4OC)c3o2)cc1` [sciadopitysin], the “degree of enzyme inhibition (cAMP-phosphodiesterase), order” value (cAMP-phosphodiesterase) is given as “almost no capacity for inhibition”.
For `COc1ccc(C2CNC(=O)C2)cc1OC1CCCC1` (centres unmarked) [rolipram], the infiltrate of eosinophils (eosinophils) is given as “significantly suppressed infiltrate”.
With `CC1C(=O)OC2C(O)C34C5CC(C(C)(C)C)C36C(OC(=O)C6O)OC4(C(=O)O5)C12O` (centres unmarked) [GB, Ginkgolide B] the “CD3+HLA-DR+ Stimulation Index” value ([1]; 10^−6 M) was 0.66 ± 0.06, the “CD3+HLA-DR+ Stimulation Index” value ([1]; 10^−7 M) was 0.78 ± 0.20 and the “CD3+HLA-DR+ Stimulation Index” value ([1]; 10^−8 M) was 0.73 ± 0.12. The “decrease in SI for HLA-DR” value ([2]; 10^−8 M) was 39%, the “SI HLA-DR” value ([2]; 10^−6 M) was 0.72 ± 0.18 and the “SI HLA-DR” value ([2]; 10^−7 M) was 0.62 ± 0.18. For the same compound, the “SI HLA-DR” value ([2]; 10^−8 M) was 0.61 ± 0.10, the “SI CD25” value ([3]; 10^−6 M) was 0.94 ± 0.12 and the “SI CD25” value ([3]; 10^−7 M) was 1.18 ± 0.21. The “SI CD25” value ([3]; 10^−8 M) was 0.81 ± 0.14, the “CD3+CD25+ Stimulation Index” value ([4]; 10^−6 M) was 0.83 ± 1.0 and the “CD3+CD25+ Stimulation Index” value ([4]; 10^−7 M) was 0.92 ± 0.08. For the same compound, the “CD3+CD25+ Stimulation Index” value ([4]; 10^−8 M) was 0.90 ± 0.07, the “protection against OV-induced asthma” value [5] was “failed to protect; also recorded: failed to reduce the severity of asthma” and the TNF-alpha (TNF-α) was 1689.21 pg/mL. For the same compound, the “SI (CD3+CD25+)” value ([6]; 10^−6 M) was 0.77±0.12 and the “SI (CD3+CD25+)” value ([6]; 10^−8 M) was 0.86±0.07.
In the case of `COc1ccc(NC(=S)N2CCc3c(sc4c3C(c3ccccc3Cl)=NCc3nnc(C)n3-4)C2)cc1` [BN 50730], the “PAF antagonistic activity in vitro compared with BN52021” value (PAF) is listed as “several ten-folds more potent”.

Source: US20060127505A1, “Anti-inflammatory formulations” (priority 2002, published 2006)
